In the supplement of paper PMC11208160:

Test: recombinant barcode read abundance after kanamycin selection (control-corrected) (log10(CPM+1)); higher = more efficient recombination; sequences stand for … in AGTGCAGAGAAAATCGGCCAGTTTTCTCTGCCTGCAGTCCGCATGCCGT…AGATTTATGCAGCGGACTGCCTTTCTCCCAAAGTGATAAACCGGACAGTATCATGGACCGGTTTTCCCGGTAATCCGTATTTGCAAGGTTGGTTTCACT; site = the 11-nt target
Procedure, shortened: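 Each value is log10(CPM+1). It describes recombination efficiency, taken as averaged, control-corrected counts per million of barcodes at recombinant junctions. The pooled E. coli library paired targets with IS621 bridge RNA target-binding loops, was co-electroporated with a donor plasmid, and was plated twice on chloramphenicol/ampicillin LB agar (control) and twice on chloramphenicol/ampicillin/kanamycin containing 0.1 mM IPTG.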
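Also: IS621 recombinase and bridge RNA in Escherichia coli cells.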

Row | Sequence | recombinant barcode read abundance (log10)
1 | CTAGTGACTTGGGTTCTAACCTGTTGCGC (site CTAGTGACTCC) | 0.0835
2 | CTAGTGACTTGGGTTCTAACCTGTTGCGC (site CTAGTGACTGC) | 2.12
3 | CTAGTGACTTGGGTTCTAACCTGTTGCGC (site CTAGTGACTTC) | 0.127
4 | CTAGTGACTTGGGTTCTAACCTGTTGCGT (site CTAGTGACTAC) | 1.17
5 | CTAGTGACTTGGGTTCTAACCTGTTGCGT (site CTAGTGACTCC) | 0.313
6 | CTAGTGACTTGGGTTCTAACCTGTTGCGT (site CTAGTGACTGC) | 0.0977
7 | CTAGTGACTTGGGTTCTAACCTGTTGCGT (site CTAGTGACTTC) | 0.00958
8 | CTATACTCTTGGGTTCTAACCTGTTGCCA (site CTATACTCTTG) | 1.03
9 | CTATACTCTTGGGTTCTAACCTGTTGCCA (site CTATTCTCTTA) | 0.195
10 | CTATATGCTTGGGTTCTAACCTGTTGCTT (site CTATATGCTAA) | 0.613
11 | CTATATGCTTGGGTTCTAACCTGTTGCTT (site TAGACCACTGT) | 0.449
12 | CTATCGCCTTGGGTTCTAACCTGTTGCCT (site CTATCGCCTAG) | 0.496
13 | CTATCGCCTTGGGTTCTAACCTGTTGCCT (site CTCTCGCCTAG) | 0.238
14 | CTATCGCCTTGGGTTCTAACCTGTTGCCT (site CTGTCGCCTAG) | 0.0772
15 | CTATCGCCTTGGGTTCTAACCTGTTGCCT (site CTTTCGCCTAG) | 0.0941
16 | CTATTATCTTGGGTTCTAACCTGTTGCCT (site CTATTATCTAG) | 0.935
17 | CTATTATCTTGGGTTCTAACCTGTTGCCT (site CTGTTATCTAG) | 0.0433
18 | CTATTCTCTTGGGTTCTAACCTGTTGCCT (site CTATTCACTAG) | 0.472
19 | CTATTCTCTTGGGTTCTAACCTGTTGCCT (site CTATTCCCTAG) | 0.188
20 | CTATTCTCTTGGGTTCTAACCTGTTGCCT (site CTATTCGCTAG) | 0.011
21 | CTATTCTCTTGGGTTCTAACCTGTTGCCT (site CTATTCTCTAG) | 2.03
22 | CTATTTGCTTGGGTTCTAACCTGTTGCAA (site CTAATTGCTTT) | 0.0524
23 | CTATTTGCTTGGGTTCTAACCTGTTGCAA (site CTACTTGCTTT) | 0.103
24 | CTATTTGCTTGGGTTCTAACCTGTTGCAA (site CTAGTTGCTTT) | 0.0402
25 | CTATTTGCTTGGGTTCTAACCTGTTGCAA (site CTATTTGCTTT) | 0.0441
26 | CTCATTCCTTGGGTTCTAACCTGTTGCGT (site CTCATTCCTAA) | 0.00984

Row | Sequence | recombinant barcode read abundance (log10)
27 | CTCATTCCTTGGGTTCTAACCTGTTGCGT (site CTCATTCCTAC) | 1.4
28 | CTCATTCCTTGGGTTCTAACCTGTTGCGT (site CTCATTCCTAG) | 0.0869
29 | CTCATTCCTTGGGTTCTAACCTGTTGCGT (site CTCATTCCTAT) | 0.212
30 | CTCCATTCTTGGGTTCTAACCTGTTGCAT (site CTCAATTCTAT) | 0.217
31 | CTCCATTCTTGGGTTCTAACCTGTTGCAT (site CTCCATTCTAT) | 1.74
32 | CTCCATTCTTGGGTTCTAACCTGTTGCAT (site CTCGATTCTAT) | 0.123
33 | CTCCATTCTTGGGTTCTAACCTGTTGCAT (site CTCTATTCTAT) | 0.34
34 | CTCCCTACTTGGGTTCTAACCTGTTGCAG (site CTCCCAACTCG) | 0.072
35 | CTCCCTACTTGGGTTCTAACCTGTTGCAG (site CTCCCTACTCT) | 1.68
36 | CTCCGGCCTTGGGTTCTAACCTGTTGCTT (site CTCCGACCTAA) | 0.809
37 | CTCCGGCCTTGGGTTCTAACCTGTTGCTT (site CTCCGCCCTAA) | 0.0895
38 | CTCCGGCCTTGGGTTCTAACCTGTTGCTT (site CTCCGGCCTAA) | 0.521
39 | CTCCGGCCTTGGGTTCTAACCTGTTGCTT (site CTCCGTCCTAA) | 0.0711
40 | CTCCGTACTTGGGTTCTAACCTGTTGCCG (site CTCCGTACTCG) | 0.13
41 | CTCCGTACTTGGGTTCTAACCTGTTGCCG (site CTTCGTACTTG) | 0.0671
42 | CTCCTACCTTGGGTTCTAACCTGTTGCCT (site CGCCTAGCTAG) | 0.11
43 | CTCCTACCTTGGGTTCTAACCTGTTGCCT (site CTCCTACCTAG) | 0.957
44 | CTCCTCTCTTGGGTTCTAACCTGTTGCCT (site CTCCTCCCTAG) | 0.862
45 | CTCCTCTCTTGGGTTCTAACCTGTTGCCT (site CTCCTCTCTAG) | 2.05
46 | CTCCTGCCTTGGGTTCTAACCTGTTGCCT (site CTCCTGCCTAG) | 0.977
47 | CTCCTGCCTTGGGTTCTAACCTGTTGCCT (site TTCCTGACTAG) | 0.0902
48 | CTCGACACTTGGGTTCTAACCTGTTGCCT (site CTAGACACTAG) | 0.697
49 | CTCGACACTTGGGTTCTAACCTGTTGCCT (site CTCGACACTAG) | 1.82
50 | CTCGACACTTGGGTTCTAACCTGTTGCCT (site CTGGACACTAG) | 0.0603
51 | CTCGACACTTGGGTTCTAACCTGTTGCCT (site CTTGACACTAG) | 0.215
52 | CTCGCAGCTTGGGTTCTAACCTGTTGCGG (site CTCGCAGCTCC) | 0.313

Row | Sequence | recombinant barcode read abundance (log10)
53 | CTCGCAGCTTGGGTTCTAACCTGTTGCGG (site CTCGCGACTCC) | 0.141
54 | CTCGCGACTTGGGTTCTAACCTGTTGCGG (site CTCGCAGCTCC) | 0.655
55 | CTCGCGACTTGGGTTCTAACCTGTTGCGG (site CTCGCGACTCC) | 0.181
56 | CTCGCTCCTTGGGTTCTAACCTGTTGCTG (site AATAAGTCTAT) | 0.102
57 | CTCGCTCCTTGGGTTCTAACCTGTTGCTG (site CTCGCTCCTCA) | 0.563
58 | CTCGGAGCTTGGGTTCTAACCTGTTGCCT (site CTCGGAACTAG) | 0.499
59 | CTCGGAGCTTGGGTTCTAACCTGTTGCCT (site CTCGGACCTAG) | 0.0847
60 | CTCGGAGCTTGGGTTCTAACCTGTTGCCT (site CTCGGAGCTAG) | 1.04
61 | CTCGGAGCTTGGGTTCTAACCTGTTGCCT (site CTCGGATCTAG) | 0.311
62 | CTCGGATCTTGGGTTCTAACCTGTTGCTT (site CTCGGATCTAA) | 1.38
63 | CTCGGATCTTGGGTTCTAACCTGTTGCTT (site CTCGGATCTCA) | 0.0569
64 | CTCGGATCTTGGGTTCTAACCTGTTGCTT (site CTCGGATCTGA) | 0.0569
65 | CTCGGATCTTGGGTTCTAACCTGTTGCTT (site CTCGGATCTTA) | 0.371
66 | CTCTAAACTTGGGTTCTAACCTGTTGCCG (site CTCATAACTCG) | 0.132
67 | CTCTAAACTTGGGTTCTAACCTGTTGCCG (site CTCTAAACTCG) | 0.311
68 | CTCTACCCTTGGGTTCTAACCTGTTGCGT (site CTCTAACCTAC) | 0.272
69 | CTCTACCCTTGGGTTCTAACCTGTTGCGT (site CTCTACCCTAC) | 0.589
70 | CTCTACCCTTGGGTTCTAACCTGTTGCGT (site CTCTAGCCTAC) | 0.0363
71 | CTCTACCCTTGGGTTCTAACCTGTTGCGT (site CTCTATCCTAC) | 0.0916
72 | CTCTAGACTTGGGTTCTAACCTGTTGCGT (site CTCTAGACTAC) | 2.01
73 | CTCTAGACTTGGGTTCTAACCTGTTGCGT (site CTTTAGACTAT) | 0.211
74 | CTCTATTCTTGGGTTCTAACCTGTTGCAT (site CTCAATTCTAT) | 0.262
75 | CTCTATTCTTGGGTTCTAACCTGTTGCAT (site CTCCATTCTAT) | 0.16
76 | CTCTATTCTTGGGTTCTAACCTGTTGCAT (site CTCGATTCTAT) | 0.161
77 | CTCTATTCTTGGGTTCTAACCTGTTGCAT (site CTCTATTCTAT) | 0.242
